Data published in PMC10674446, “Synthesis and Structural Characterization of Novel Dimers of Dipyridothiazine as Promising Antiproliferative Agents” (Molecules, 2023).
Where two headings read alike, the source gives them in different places.

Assays:
MCF7 breast cancer = assay: MTT cell viability assay, MCF7; format: cell-based, human; conditions: for Selectivity Index (SI), MCF-7: SI = IC50 L6 / IC50 MCF-7; for IC50: Homo sapiens, MCF7, mean ± SD, n = 3, read-out: Anticancer Activity IC50, MCF-7
Experimental: (§1) MCF7, SW480 and normal L6 muscle cells were bought from the ATCC company, USA [34]. MCF7 and SW480 adenocarcinoma cell lines were cultured, respectively, using Dulbecco’s Modified Eagle Medium (DMEM with 4.5 g/L glucose; HIMEDIA, Mumbai, India) supplemented with 100 U/mL penicillin, 100 µg/mL of streptomycin and 10% fetal bovine serum (FBS; Cat No. FBSEU500; Tico Europe, Amstelveen, The Netherlands) under standard conditions until the desired confluency was reached. Once the desired cell confluency of 70–80% was observed, the cells were sub-cultured through trypsinization, and the cell count was calculated prior to seeding in the 96-well microplate. Similarly, L6 rat myoblasts were cultured accordingly as normal cell lines to compare against MCF7 and SW480 cell lines during the MTT cell viability assay.
(§2) Cells were seeded in a 96-well microplate at a density of 1 × 10^4 cells per well and were allowed to adhere to the wells overnight. […] The cells were exposed to the tested substances at concentrations ranging from 50, 25, 10, 5 and 1 μM. The treatment was conducted over three periods of 24 h, 48 h and 72 h, respectively. […] Lastly, the spent MTT medium was removed and DMSO was added to the wells, where the purple formazan crystals were solubilized, and the intensity of the purple hue was spectrophotometrically measured at 570 nm.
(§3) All values were represented as means ± standard deviations (n = 3). […] The IC50 values were further subjected to one-way ANOVA analysis along with the post hoc test to determine the statistical significance between the treatment groups and the negative control (untreated cells).

SW480 colon cancer = assay: MTT cell viability assay, SW480; format: cell-based, human; conditions: for Selectivity Index (SI), SW480: SI = IC50 L6 / IC50 SW480; for IC50: Homo sapiens, SW480, mean ± SD, n = 3, read-out: Anticancer Activity IC50, SW480
Experimental: as §1, §2, §3

normal L6 rat myoblasts = assay: MTT cell viability assay, normal L6 cells; format: cell-based; conditions: Rattus norvegicus, Myoblast, mean ± SD, n = 3, read-out: Anticancer Activity IC50, L6
Experimental: as §1
(§4) Cells were seeded in a 96-well microplate at a density of 1 × 10^4 cells per well and were allowed to adhere to the wells overnight. Subsequently, the cells were treated with varying concentrations of 12 compounds (1a,b,c–4a,b,c) along with doxorubicin as the positive control. The cells were exposed to the tested substances at concentrations ranging from 50, 25, 10, 5 and 1 μM. The treatment was conducted over three periods of 24 h, 48 h and 72 h, respectively. After the treatment period, thiazolyl blue tetrazolium bromide (MTT) solution was added to each well at a concentration of 0.5 mg/mL and incubated for 3 h in a 37 °C incubator supplemented with 5% CO2. Lastly, the spent MTT medium was removed and DMSO was added to the wells, where the purple formazan crystals were solubilized, and the intensity of the purple hue was spectrophotometrically measured at 570 nm.
(§5) All values were represented as means ± standard deviations (n = 3). The data were statistically analyzed using GraphPad Prism 10.1.0, where the IC50 values of each compound treated on different cell lines at different time points were obtained by extrapolating the logarithmic dose–response curve. The IC50 values were further subjected to one-way ANOVA analysis along with the post hoc test to determine the statistical significance between the treatment groups and the negative control (untreated cells).

[1] = test system: MCF7 and SW480 cancer cells; assay: MTT cell viability assay, both cancer cell lines; format: cell-based, human
Experimental: as §1, §4, §5

[2] = 72 h treatment period, NA = IC50 beyond the tested concentration range (1-50 µM)

IC50 (MCF7 breast cancer; 24 h treatment period)	IC50 (MCF7 breast cancer; 48 h treatment period)	IC50 (MCF7 breast cancer; [2])	IC50 (SW480 colon cancer; 24 h treatment period)	IC50 (SW480 colon cancer; 48 h treatment period)	IC50 (SW480 colon cancer; 72 h treatment period)	IC50 ([1]; Homo sapiens, MCF7 and SW480, span over 24, 48 and 72 h, read-out: IC50 range towards both cancer cell lines)	melting point	Structure (SMILES)	Selectivity Index (SI), MCF-7 (MCF7 breast cancer; 24 h)	Selectivity Index (SI), MCF-7 (MCF7 breast cancer; 48 h)	Selectivity Index (SI), MCF-7 (MCF7 breast cancer; 72 h)	Selectivity Index (SI), SW480 (SW480 colon cancer; 24 h)	Selectivity Index (SI), SW480 (SW480 colon cancer; 48 h)	Selectivity Index (SI), SW480 (SW480 colon cancer; 72 h)	IC50 (normal L6 rat myoblasts; 24 h treatment period)	IC50 (normal L6 rat myoblasts; 48 h treatment period)	IC50 (normal L6 rat myoblasts; 72 h treatment period)	toxicity towards both MCF7 and SW480 cancer cells (in words) ([1]; 24, 48 and 72 h of incubation)	cytotoxicity towards MCF7 compared with SW480 (in words) ([1]; breast cancer cell line MCF7 versus colon cancer cell line SW480)
5 ± 1.29 µM	0.75 ± 1.85 µM	1.14 ± 0.51 µM	0.67 µM	3.97 ± 1.27 µM	4.27 ± 0.19 µM	0.67 to 5 µM	245 to 247 °C	c1cc(CN2c3cccnc3Sc3cccnc32)nc(CN2c3cccnc3Sc3cccnc32)c1 [1c, 2,6-bis((dipyrido[2,3-b:2′,3′-e][1,4]thiazin-10-yl)methyl)pyridine]	2.25	3.56	5.5	16.5	0.67	1.5	11.3 ± 0.99 µM	2.67 ± 2.13 µM	6.82 ± 1.24 µM	significantly toxic	–
7.85 ± 1.67 µM	7.12 ± 0.42 µM	7.49 ± 1.13 µM	21.8 ± 0.36 µM	20.5 ± 0.79 µM	17.5 ± 0.5 µM	–	265 to 267 °C	c1ccc(CN2c3cccnc3Sc3cccnc32)c(CN2c3cccnc3Sc3cccnc32)c1 [1a, 1,2-bis((dipyrido[2,3-b:2′,3′-e][1,4]thiazin-10-yl)methyl)benzene]	2.62	2.69	2.15	0.94	0.93	0.92	20.6 ± 0.29 µM	19.1 ± 1.08 µM	16.1 ± 0.42 µM	–	higher cytotoxicity
